According to publication PMC11597202, “Novel Thiazole-Fused [4,5-g] or [5,4-g]Quinazolin-8-ones and Their Quinazoline Analogues: Synthesis and Biological Evaluation” (Pharmaceuticals, 2024):

Molecular target: T1, JAK3 (Homo sapiens, UniProt P52333)
T1 construct: host or cells: Sf9 insect cells (baculovirus)
T1 sequence (P52333 1-1124): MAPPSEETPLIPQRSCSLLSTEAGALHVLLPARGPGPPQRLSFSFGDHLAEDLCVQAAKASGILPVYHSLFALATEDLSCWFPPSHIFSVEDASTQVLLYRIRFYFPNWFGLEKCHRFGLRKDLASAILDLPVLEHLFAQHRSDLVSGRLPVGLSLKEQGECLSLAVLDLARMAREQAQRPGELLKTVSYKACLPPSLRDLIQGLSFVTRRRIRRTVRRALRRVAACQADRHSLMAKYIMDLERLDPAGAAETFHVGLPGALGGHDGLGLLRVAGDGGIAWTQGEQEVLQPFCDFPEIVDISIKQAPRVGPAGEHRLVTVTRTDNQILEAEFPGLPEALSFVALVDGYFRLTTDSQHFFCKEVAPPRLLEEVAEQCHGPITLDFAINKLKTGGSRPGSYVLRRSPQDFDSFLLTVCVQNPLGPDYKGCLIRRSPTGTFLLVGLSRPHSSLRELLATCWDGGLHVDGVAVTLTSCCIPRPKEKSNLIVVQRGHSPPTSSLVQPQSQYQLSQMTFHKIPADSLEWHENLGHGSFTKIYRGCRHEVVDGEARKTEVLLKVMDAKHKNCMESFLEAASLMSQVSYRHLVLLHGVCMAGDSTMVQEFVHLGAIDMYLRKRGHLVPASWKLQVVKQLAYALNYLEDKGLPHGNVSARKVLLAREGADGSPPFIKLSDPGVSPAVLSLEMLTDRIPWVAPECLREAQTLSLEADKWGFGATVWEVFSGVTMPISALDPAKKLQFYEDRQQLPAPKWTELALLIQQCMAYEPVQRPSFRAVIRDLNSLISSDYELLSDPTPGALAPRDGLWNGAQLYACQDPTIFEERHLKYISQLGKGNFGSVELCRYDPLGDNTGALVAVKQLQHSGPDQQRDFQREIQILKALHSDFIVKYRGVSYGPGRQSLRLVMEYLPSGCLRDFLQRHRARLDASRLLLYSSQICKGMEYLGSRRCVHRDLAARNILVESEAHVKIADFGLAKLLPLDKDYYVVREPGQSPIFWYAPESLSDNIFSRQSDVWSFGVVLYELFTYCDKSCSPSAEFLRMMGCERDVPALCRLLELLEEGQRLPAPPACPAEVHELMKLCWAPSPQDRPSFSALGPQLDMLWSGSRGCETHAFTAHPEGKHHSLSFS
Experiment: ADP-Glo kinase inhibition assay, JAK3
Type: biochemical
Conditions: for remaining activity at 1 µM: 1 μM compound; for remaining activity at 1 µM / remaining activity at 10 µM: percentage of maximum activity of the DMSO control, mean n = 2, 10 µM ATP, read-out: Residual activity JAK3; for remaining activity at 10 µM: 10 μM compound; for Inhibition of JAK3 kinase activity: span over the tested concentrations (1 and 10 μM)
Method: Kinase enzymatic activities were assayed in 384-well plates using the ADP-Glo^TM assay kit (Promega, Madison, WI, USA) according to the recommendations of the manufacturer. This luminescent ADP detection assay was described by Zegzouti and co-workers and provides a homogeneous and high-throughput screening method to measure kinase activity by quantifying the amount of ADP produced during a kinase reaction. Briefly, the reactions were carried out in a final volume of 6 µL for 30 min at 30 °C in an appropriate kinase buffer (10 mM MgCl2, 1 mM EGTA, 1 mM DTT, 25 mM Tris-HCl pH 7.5, 50 µg/mL heparin), with peptide or protein as substrate in the presence of 10 µM ATP. Peptide substrates were obtained from ProteoGenix (Schiltigheim, France) or Sigma for Histone H1, Poly (L-glutamic acid–L-tyrosine) sodium salt, Casein and MBP. After that, 6 µL of ADP-Glo^TM Kinase Reagent was added to stop the kinase reaction. After an incubation time of 50 min at room temperature (rt), 12 µL of Kinase Detection Reagent was added for one hour at rt. The transmitted signal was measured using the Envision (PerkinElmer, Waltham, MA, USA) microplate luminometer and expressed as Relative Light Units (RLUs). Kinase activities are expressed as percentages of remaining kinase activities detected after treatment with 1 or 10 µM of the tested compounds. The maximum kinase activity was measured in the absence of inhibitor but with an equivalent dose of DMSO (solvent of the tested compounds).
3. Kinase inhibition assays
Kinase enzymatic activities were assayed in 384-well plates using the ADP-GloTM assay kit (Promega, Madison, WI) according to the recommendations of the manufacturer. This luminescent ADP detection assay was described by Zegzouti and co-workers and provides a homogeneous and high-throughput screening method to measure kinase activity by quantifying the amount of ADP produced during a kinase reaction. Briefly, the reactions were carried out in a final volume of 6 µl for 30 min at 30°C in appropriate kinase buffer (10 mM MgCl2, 1 mM EGTA, 1 mM DTT, 25 mM Tris-HCl pH 7.5, 50 µg/mL heparin), with peptide or protein as substrate in the presence of 10 µM ATP. Peptide substrates were obtained from ProteoGenix (Schiltigheim, France) or Sigma for Histone H1, Poly (L-glutamic acid – L-tyrosine) sodium salt, Casein and MBP. After that, 6 µL of ADP-GloTM Kinase Reagent was added to stop the kinase reaction. After an incubation time of 50 min at room temperature (rt), 12 µL of Kinase Detection Reagent was added for 1 h at rt. The transmitted signal was measured using the Envision (PerkinElmer, Waltham, MA) microplate luminometer and expressed in Relative Light Unit (RLU). Kinase activities are expressed in percentages of remaining kinase activities detected after treatment with 1 or 10 µM of the tested compounds. The maximal kinase activity is measured in the absence of inhibitor but with an equivalent dose of DMSO (solvent of the tested compounds).
Table. Human protein kinases tested in the panel: CDK9, HASPIN, PIM1, GSK3b, CK1ε, JAK3, CLK1 […]
Protein Kinase Enzyme Description Substrate1
(Family) (Working concentration)
CDK9/CyclinT Human, recombinant, expressed by Peptide:
(CMGC) baculovirus in Sf9 insect cells […]
CLK1 Human, recombinant, expressed by Peptide: […]
(CMGC) baculovirus in Sf9 insect cells (57.3µM)
DYRK1A Human, recombinant, expressed by Peptide: […]
(CMGC) baculovirus in Sf9 insect cells (10.7µM)
PIM1 Human proto-oncogene, recombinant, Peptide: […]
(CAMK) expressed in bacteria (630 µM)
GSK3 Human, recombinant, expressed by Peptide:
(CMGC) baculovirus in Sf9 insect cells […]pEDEEE 3
HASPIN Human, kinase domain, amino acids 470 to Histone H3 peptide (1-21):
(Other) 798, recombinant, expressed in bacteria […] (8µM)
CK1ε Human, recombinant, expressed by Peptide: […]pAYSITA 2
(CK1) baculovirus in Sf9 insect cells (170µM)
JAK3 Human, recombinant, expressed by Peptide: […]
(TK) baculovirus in Sf9 insect cells (94µM) […]

Row | Structure (SMILES) | remaining activity at 1 µM [%] | remaining activity at 10 µM [%] | Inhibition of JAK3 kinase activity
1 | COC(=N)c1nc2cc3c(=O)n(Cc4ccccc4)cnc3cc2s1 [Compound 6a, Methyl 7-benzyl-8-oxo-7,8-dihydrothiazolo[4,5-g]quinazoline-2-carbimidate] | 55 | 36 | –
2 | COC(=N)c1nc2cc3ncn(Cc4ccccc4)c(=O)c3cc2s1 [Compound 6b, Methyl 7-benzyl-8-oxo-7,8-dihydrothiazolo[5,4-g]quinazoline-2-carbimidate] | 92 | 73 | –
3 | COC(=N)c1nc2c(ccc3c(=O)n(Cc4ccccc4)cnc32)s1 [Compound 6c, Methyl 7-benzyl-6-oxo-6,7-dihydrothiazolo[5,4-h]quinazoline-2-carbimidate] | 59 | 44 | –
4 | COC(=N)c1nc2ccc3c(=O)n(Cc4ccccc4)cnc3c2s1 [Compound 6d, Methyl 7-benzyl-6-oxo-6,7-dihydrothiazolo[4,5-h]quinazoline-2-carbimidate] | 80 | 92 | –
5 | COC(=N)c1nc2ccc3ncn(Cc4ccccc4)c(=O)c3c2s1 [Compound I, methyl 8-benzyl-9-oxo-8,9-dihydrothiazolo[5,4-f]quinazoline-2-carbimidate, reference compound] | 48 | 52 | –
6 | COC(=N)c1nc2ccc3ncnc(Nc4ccc(OC)cc4F)c3c2s1 [Compound II, methyl 9-[(2-fluoro-4-methoxyphenyl)amino]thiazolo[5,4-f]quinazoline-2-carbimidate, reference compound] | 69 | 54 | –

More lines, now with the values ahead:

Row | remaining activity at 1 µM [%] | remaining activity at 10 µM [%] | Inhibition of JAK3 kinase activity | Structure (SMILES)
7 | 64 | 58 | around 38% | COC(=N)c1nc2cc3c(Nc4ccc(OC)cc4F)ncnc3cc2s1 [Compound 15a, Methyl 8-[(2-fluoro-4-methoxyphenyl)amino]thiazolo[4,5-g]quinazoline-2-carbimidate]
8 | 68 | 60 | around 38% | COC(=N)c1nc2cc3ncnc(Nc4ccc(OC)cc4F)c3cc2s1 [Compound 15b, Methyl 8-[(2-fluoro-4-methoxyphenyl)amino]thiazolo[5,4-g]quinazoline-2-carbimidate]
